Results reported in PubChem BioAssay (NCI).
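Compound exposure: 48 hours, 5 concentrations, 96-well plates. Here, GI50 denotes the concentration required for 50% inhibition of growth. TGI: concentration producing complete growth inhibition.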

How the values were obtained:
Assay in all cases: NCI-60 cell line screen, 48 h
KM12 colon = test system: KM12 colon
SF-295 CNS = test system: SF-295 CNS
NCI-H226 lung = test system: NCI-H226 lung
U251 CNS = test system: U251 CNS
NCI-H460 lung = test system: NCI-H460 lung
BT-549 breast = test system: BT-549 breast
LOX IMVI melanoma = test system: LOX IMVI melanoma
OVCAR-3 ovarian = test system: OVCAR-3 ovarian
HS 578T breast = test system: HS 578T breast
OVCAR-4 ovarian = test system: OVCAR-4 ovarian
HCT-15 colon = test system: HCT-15 colon
SF-268 CNS = test system: SF-268 CNS
HOP-62 NSCLC = test system: HOP-62 NSCLC
SK-MEL-28 melanoma = test system: SK-MEL-28 melanoma
DU-145 prostate = test system: DU-145 prostate
MCF7 breast = test system: MCF7 breast
SNB-19 CNS = test system: SNB-19 CNS
SK-OV-3 ovarian = test system: SK-OV-3 ovarian
UACC-257 melanoma = test system: UACC-257 melanoma
SN12C renal = test system: SN12C renal
MOLT-4 leukemia = test system: MOLT-4 leukemia
CAKI-1 renal = test system: CAKI-1 renal
TK-10 renal = test system: TK-10 renal
IGROV1 ovarian = test system: IGROV1 ovarian
PC-3 prostate = test system: PC-3 prostate
MDA-MB-435 = test system: MDA-MB-435
M14 melanoma = test system: M14 melanoma
RPMI-8226 leukemia = test system: RPMI-8226 leukemia
A498 renal = test system: A498 renal

Which TGI (KM12 colon) does the source give for `CCn1cnc(C[C@H](NC(=O)[C@@H](NC(=O)Nc2cc(C(F)(F)F)cc(C(F)(F)F)c2)C(C)C)C(=O)OC)c1` here?
Its TGI is 3.9 µM.

And the GI50 (SF-295 CNS)?
Its GI50 is over 10 µM.

And the TGI (SF-295 CNS)?
The TGI was over 10 µM.

And the GI50 (NCI-H226 lung)?
The GI50 was 3.74 µM.

And the TGI (NCI-H226 lung)?
The TGI was over 10 µM.

And the GI50 (U251 CNS)?
Its GI50 is 1.98 µM.

And the TGI (U251 CNS)?
Its TGI is 3.96 µM.

And the GI50 (NCI-H460 lung)?
Its GI50 is 2.13 µM.

And the TGI (NCI-H460 lung)?
The TGI was 4.43 µM.

What about the GI50 (BT-549 breast) of the same molecule?
The GI50 was 1.78 µM.

What about the TGI (BT-549 breast) of the same molecule?
The TGI was 3.58 µM.

And the GI50 (LOX IMVI melanoma)?
Its GI50 is 2.5 µM.

What about the TGI (LOX IMVI melanoma) of the same molecule?
The TGI was 7.43 µM.

And the GI50 (OVCAR-3 ovarian)?
The GI50 was 1.82 µM.

What about the TGI (OVCAR-3 ovarian) of the same molecule?
The TGI was 3.44 µM.

What about the GI50 (HS 578T breast) of the same molecule?
Its GI50 is 2.18 µM.

And the TGI (HS 578T breast)?
Its TGI is 6.11 µM.

What about the GI50 (OVCAR-4 ovarian) of the same molecule?
Its GI50 is 1.83 µM.

And the TGI (OVCAR-4 ovarian)?
The TGI was 3.54 µM.

What about the GI50 (HCT-15 colon) of the same molecule?
Its GI50 is over 10 µM.

And the TGI (HCT-15 colon)?
The TGI was over 10 µM.

What about the GI50 (SF-268 CNS) of the same molecule?
Its GI50 is 1.76 µM.

And the TGI (SF-268 CNS)?
The TGI was 3.4 µM.

What about the GI50 (HOP-62 NSCLC) of the same molecule?
The GI50 was 1.87 µM.

What about the TGI (HOP-62 NSCLC) of the same molecule?
Its TGI is 3.65 µM.

And the GI50 (SK-MEL-28 melanoma)?
The GI50 was 1.98 µM.

And the TGI (SK-MEL-28 melanoma)?
The TGI was 4.28 µM.

And the GI50 (DU-145 prostate)?
Its GI50 is 2.26 µM.

And the TGI (DU-145 prostate)?
Its TGI is 4.84 µM.

And the GI50 (MCF7 breast)?
Its GI50 is 1.83 µM.

And the TGI (MCF7 breast)?
Its TGI is 3.8 µM.

What about the GI50 (SNB-19 CNS) of the same molecule?
Its GI50 is 1.61 µM.

And the TGI (SNB-19 CNS)?
Its TGI is 3.19 µM.

And the GI50 (SK-OV-3 ovarian)?
Its GI50 is 2.06 µM.

What about the TGI (SK-OV-3 ovarian) of the same molecule?
Its TGI is 4.41 µM.

What about the GI50 (UACC-257 melanoma) of the same molecule?
The GI50 was over 10 µM.

What about the TGI (UACC-257 melanoma) of the same molecule?
The TGI was over 10 µM.

What about the GI50 (SN12C renal) of the same molecule?
The GI50 was 1.73 µM.

What about the TGI (SN12C renal) of the same molecule?
Its TGI is 3.57 µM.

And the GI50 (MOLT-4 leukemia)?
The GI50 was 2.99 µM.

What about the TGI (MOLT-4 leukemia) of the same molecule?
Its TGI is 9.35 µM.

And the GI50 (CAKI-1 renal)?
Its GI50 is over 10 µM.

What about the TGI (CAKI-1 renal) of the same molecule?
The TGI was over 10 µM.

What about the GI50 (TK-10 renal) of the same molecule?
Its GI50 is 1.88 µM.

And the TGI (TK-10 renal)?
The TGI was 3.89 µM.

What about the GI50 (IGROV1 ovarian) of the same molecule?
The GI50 was 2.33 µM.

And the TGI (IGROV1 ovarian)?
Its TGI is 5.75 µM.

What about the GI50 (PC-3 prostate) of the same molecule?
The GI50 was 1.97 µM.

And the TGI (PC-3 prostate)?
The TGI was 4.03 µM.

What about the GI50 (MDA-MB-435) of the same molecule?
Its GI50 is 3.17 µM.

And the TGI (MDA-MB-435)?
Its TGI is over 10 µM.

And the GI50 (M14 melanoma)?
The GI50 was 3.54 µM.

And the TGI (M14 melanoma)?
Its TGI is over 10 µM.

What about the GI50 (RPMI-8226 leukemia) of the same molecule?
The GI50 was 2.76 µM.

And the TGI (RPMI-8226 leukemia)?
Its TGI is 8.45 µM.

What about the GI50 (A498 renal) of the same molecule?
The GI50 was over 10 µM.

What about the TGI (A498 renal) of the same molecule?
Its TGI is over 10 µM.
